According to patent publication US7652070B2, “Treatment method for MMP-implicated pathologies” (priority 2007, dated 2010):

What was measured:
cystinosis patients = settings: cited from earlier work
MMP-9 = MMP-9 (Homo sapiens, UniProt P14780); test: Breakdown/inhibition of MMP-9 by cysteamine analyzed by zymography; type: biochemical; settings: Michaelis-Mentin kinetics, FIG. 1
Text: FIG. 1 is a table illustrating inhibition of MMP-9 by cysteamine.
FIG. 1 illustrates the result of a laboratory test showing the breakdown of MMP-9 as analyzed by zymography. Because enzymes are structure specific, it can be inferred that there is inhibition of MMP-9 by cysteamine. It is believed that cysteamine inactivates MMP by breaking an important sulfur bond, causing the enzyme to unfold.

[1] = tested on: pre-renal transplant cystinotics; settings: cited from earlier work

MMP-9, sequence (P14780 94-707): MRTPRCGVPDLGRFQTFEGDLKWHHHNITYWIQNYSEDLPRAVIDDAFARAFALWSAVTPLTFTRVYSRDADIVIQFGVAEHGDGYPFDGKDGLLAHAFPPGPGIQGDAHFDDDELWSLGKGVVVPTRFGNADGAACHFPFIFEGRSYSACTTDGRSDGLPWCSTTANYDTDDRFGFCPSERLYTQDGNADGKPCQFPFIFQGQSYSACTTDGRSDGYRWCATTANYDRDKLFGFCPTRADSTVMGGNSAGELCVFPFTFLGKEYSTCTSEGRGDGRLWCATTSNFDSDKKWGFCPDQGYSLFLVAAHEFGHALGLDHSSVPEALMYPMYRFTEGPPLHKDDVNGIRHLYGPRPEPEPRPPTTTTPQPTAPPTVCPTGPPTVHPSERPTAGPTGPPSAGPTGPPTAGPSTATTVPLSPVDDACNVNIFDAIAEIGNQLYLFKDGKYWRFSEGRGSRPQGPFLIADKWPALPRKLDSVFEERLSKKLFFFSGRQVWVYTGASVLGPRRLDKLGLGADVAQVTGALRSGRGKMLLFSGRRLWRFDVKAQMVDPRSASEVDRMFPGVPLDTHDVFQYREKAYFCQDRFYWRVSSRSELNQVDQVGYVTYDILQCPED

SMILES | efficacy of eye drop concentration (cystinosis patients; concentration 0.1%, cystinosis patients) | toxicity of eye drops (cystinosis patients; eye drop 0.5%, preserved with benzalkonium, up to 12 times per day, slight burning sensation possible) | Ki (MMP-9) [µM] | effect of cysteamine therapy on growth and renal function [1] | toxicity of cysteamine therapy [1]
Cl.NCCS [Cysteamine {HCl}] | effective | no toxicity has not been observed | – | – | –
NCCS [cysteamine, Cysteamine (HSCH2CH2NH2)] | – | – | 530 ± 140 | improved growth and stabilized renal function | without substantial toxicity
